From patent US7192958B2, “Sodium channel blockers” (Parion Sciences, Inc., priority 2002, dated 2007)

target: T1, airway epithelial sodium currents (epithelial Na+ channel, ENaC) in canine bronchial epithelia (Canis lupus familiaris, UniProt A0A8I3MKE6+A0A8I3Q679+Q95165); test: Sodium channel blocking activity: potency in canine bronchial epithelia, short circuit current (ISC) in Ussing chambers; type: cell-based; details: relative to amiloride as positive control
T1 construct: endogenous in cells; host or cells: primary canine bronchial epithelial cells cultured at air-liquid interface, mounted in Ussing chambers
T1 sequence (A0A8I3Q679 1-649): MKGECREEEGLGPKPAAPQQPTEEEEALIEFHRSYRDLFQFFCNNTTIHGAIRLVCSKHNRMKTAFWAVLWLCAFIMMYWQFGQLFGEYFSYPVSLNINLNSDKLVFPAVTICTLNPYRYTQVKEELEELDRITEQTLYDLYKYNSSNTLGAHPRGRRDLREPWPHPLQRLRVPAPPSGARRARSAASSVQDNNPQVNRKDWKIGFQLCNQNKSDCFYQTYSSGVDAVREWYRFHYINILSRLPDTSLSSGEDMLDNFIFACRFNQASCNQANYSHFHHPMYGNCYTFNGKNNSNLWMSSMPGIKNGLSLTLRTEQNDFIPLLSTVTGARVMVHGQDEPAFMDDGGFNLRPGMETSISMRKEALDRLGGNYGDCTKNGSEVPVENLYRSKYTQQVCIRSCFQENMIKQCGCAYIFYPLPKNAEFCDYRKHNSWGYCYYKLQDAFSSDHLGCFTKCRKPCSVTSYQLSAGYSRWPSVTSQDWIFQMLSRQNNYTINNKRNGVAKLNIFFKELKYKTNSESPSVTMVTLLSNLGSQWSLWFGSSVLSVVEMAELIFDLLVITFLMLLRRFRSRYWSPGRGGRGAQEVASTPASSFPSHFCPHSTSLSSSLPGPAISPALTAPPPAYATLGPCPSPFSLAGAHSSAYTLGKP
T1 sequence (Q95165 1-641): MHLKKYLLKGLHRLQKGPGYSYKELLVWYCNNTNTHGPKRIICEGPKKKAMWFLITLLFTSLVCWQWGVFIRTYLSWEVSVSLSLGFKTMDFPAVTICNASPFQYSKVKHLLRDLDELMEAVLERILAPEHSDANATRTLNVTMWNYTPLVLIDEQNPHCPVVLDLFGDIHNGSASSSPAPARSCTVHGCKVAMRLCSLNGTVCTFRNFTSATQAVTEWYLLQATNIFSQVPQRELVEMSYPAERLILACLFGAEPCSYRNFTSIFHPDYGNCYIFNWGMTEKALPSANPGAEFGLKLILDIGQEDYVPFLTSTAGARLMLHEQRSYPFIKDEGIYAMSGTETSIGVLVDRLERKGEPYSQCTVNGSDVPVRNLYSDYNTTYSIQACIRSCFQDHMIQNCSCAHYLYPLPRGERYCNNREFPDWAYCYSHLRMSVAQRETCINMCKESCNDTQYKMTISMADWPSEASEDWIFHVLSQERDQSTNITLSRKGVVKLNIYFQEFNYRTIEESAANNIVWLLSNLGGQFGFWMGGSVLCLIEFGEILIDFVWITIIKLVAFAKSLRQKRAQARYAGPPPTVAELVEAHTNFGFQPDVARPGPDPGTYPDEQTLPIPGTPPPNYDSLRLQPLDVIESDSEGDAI
T1 sequence (A0A8I3MKE6 1-646): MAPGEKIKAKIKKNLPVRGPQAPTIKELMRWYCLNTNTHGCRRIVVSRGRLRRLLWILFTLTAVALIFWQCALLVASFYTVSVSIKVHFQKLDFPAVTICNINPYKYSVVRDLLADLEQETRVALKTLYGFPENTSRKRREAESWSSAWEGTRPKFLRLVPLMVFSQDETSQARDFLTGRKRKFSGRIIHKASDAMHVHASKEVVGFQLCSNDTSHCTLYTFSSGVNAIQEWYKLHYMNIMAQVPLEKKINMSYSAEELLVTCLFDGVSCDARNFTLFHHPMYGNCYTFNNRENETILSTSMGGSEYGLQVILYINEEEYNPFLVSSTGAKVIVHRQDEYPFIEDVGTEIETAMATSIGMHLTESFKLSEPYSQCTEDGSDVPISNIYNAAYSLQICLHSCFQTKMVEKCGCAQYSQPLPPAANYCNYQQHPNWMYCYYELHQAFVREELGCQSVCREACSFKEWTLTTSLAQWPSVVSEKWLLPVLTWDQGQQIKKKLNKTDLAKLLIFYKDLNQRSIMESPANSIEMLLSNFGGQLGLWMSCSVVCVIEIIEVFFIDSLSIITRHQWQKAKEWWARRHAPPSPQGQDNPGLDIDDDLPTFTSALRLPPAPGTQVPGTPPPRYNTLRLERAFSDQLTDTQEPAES
Method: One assay used to assess mechanism of action and/or potency of the compounds of the present invention involves the determination of lumenal drug inhibition of airway epithelial sodium currents measured under short circuit current (ISC) using airway epithelial monolayers mounted in Ussing chambers. Cells obtained from freshly excised human, dog, sheep or rodent airways are seeded onto porous 0.4 micron Snapwell™ Inserts (CoStar), cultured at air-liquid interface (ALI) conditions in hormonally defined media, and assayed for sodium transport activity (ISC) while bathed in Krebs Bicarbonate Ringer (KBR) in Using chambers. All test drug additions are to the lumenal bath with half-log dose addition protocols (from 1×10^−11 M to 3×10^−5M), and the cumulative change in ISC (inhibition) recorded. All drugs are prepared in dimethyl sulfoxide as stock solutions at a concentration of […] and stored at −20° C. Eight preparations are typically run in parallel; two preparations per run incorporate amiloride and/or benzamil as positive controls. After the maximal concentration ([…]) is administered, the lumenal bath is exchanged three times with fresh drug-free KBR solution, and the resultant ISCmeasured after each wash for approximately 5 minutes in duration. Reversibility is defined as the percent return to the baseline value for sodium current after the third wash. All data from the voltage clamps are collected via a computer interface and analyzed off-line.
Dose-effect relationships for all compounds are considered and analyzed by the Prism 3.0 program. IC50 values, maximal effective concentrations, and reversibility are calculated and compared to amiloride and benzamil as positive controls.
Amiloride was also tested in this assay as a positive control. The results for the compounds of the present invention are reported as fold-enhancement values relative to amiloride.

Row | Compound | Fold Enhancement Over Amiloride [fold]
1 | Cl.N=C(NCCCCc1ccc(O)cc1O)NC(=O)c1nc(Cl)c(N)nc1N [drawing 26 Position 2,4 R H, 4-(2,4-Dihydroxyphenyl)butylamidino-3,5-diamino-6-chloropyrazinecarboxamide hydrochloride] | 14.9
2 | Cl.N=C(NCCCCc1ccc(O)c(O)c1)NC(=O)c1nc(Cl)c(N)nc1N [drawing 26 Position 3,4 R H, 4-(3,4-Dihydroxyphenyl)butylamidino-3,5-diamino-6-chloropyrazinecarboxamide hydrochloride] | 15.1
3 | Cl.N=C(NCCCc1ccc(O)cc1)NC(=O)c1nc(Cl)c(N)nc1N [drawing 27 n 3 Position of R 4 R OH, 3-(4-Hydroxyphenyl)propylamidino-3,5-diamino-6-chloropyrazinecarboxamide hydrochloride] | 5.2
4 | Cl.N=C(NCCCCc1ccc(O)cc1)NC(=O)c1nc(Cl)c(N)nc1N [drawing 27 n 4 Position of R 4 R OH, 4-(4-hydroxyphenyl)butylamidino-3,5-diamino-6-chloropyrazinecarboxamide hydrochloride] | 50.3
5 | Cl.N=C(NCCCCCc1ccc(O)cc1)NC(=O)c1nc(Cl)c(N)nc1N [drawing 27 n 5 Position of R 4 R OH, 5-(4-Hydroxyphenyl)pentylamidino-3,5-diamino-6-chloropyrazinecarboxamide hydrochloride] | 14
6 | Br.N=C(NCCCOc1ccc(O)cc1)NC(=O)c1nc(Cl)c(N)nc1N [drawing 29 a CH2 b O R H, 4-(4-Hydroxyphenyl)-4-oxabutylamidino-3,5-diamino-6-chloropyrazinecarboxamide hydrobromide] | 16.1
